Assays:
Guinea Pig = settings: Oral, VPITAR 33(5)48,74; cited from earlier work
[1] = test system: all stages of blow fly and larval life cycle; test: activity against blow fly and larval stages
human volunteers = settings: 24 hour closed-patch test, 25 human volunteers (Kligman 1973); cited from earlier work
Rat = settings: Oral, Russell 1973; cited from earlier work
Aspergillus nidulans = test: growth inhibition test on SAB agar, A. nidulans; format: cell-based
Method: (§1) The antifungal activity of ethyl trans-cinnamate against a number of different fungi was investigated by means of in a simple growth inhibition test.
(§2) The following quantities of Ethyl trans-Cinnamate were added to Sabourand Dextrose agar (SAB); 50 ml L^-1, 4ml L^-1, 2ml L^-1, 1ml L^-1, 400 µl L^-1, 200 µl L^-1 and 40 µl L^-1. […] These were then autoclaved and poured into standard Petri dishes. […] Duplicate plates of each concentration, plus control plates containing only SAB Agar, where then separately inoculated with, four different species of fungi, these were Aspergillus nidulans, Penicillium digitatum, Rhizopus arrhizus and Fusarium culmorum. Inoculation was carried out using a single stab at the centre of each Petri dish. The plates were then incubated at 30°C for 6 days and daily measurements of mycobial growth where taken every 24 hours.

Rhizopus arrhizus = test: growth inhibition test on SAB agar, R. arrhizus; format: cell-based
Method: as §1, §2

Acarus siro = test: residual filter paper bioassay on Acarus siro (Table 2a)
Method: The effect of trans-cinnamic acid ethyl ester on the mite Acarus siro was investigated using a residual filter paper bioassay. Seven samples of 0.01g of mite culture was placed on 7, 90mm Whatman™ filter papers. Each paper was previously treated with 745µl of a solution containing trans-cinnamic acid ethyl ester at concentrations varying from 74.64µl to 7.64 x 10^-4 µl/petri dish respectively and allowed to dry for 15 minutes. The controls were treated in the same way except ethanol (HPLC grade) was used as this was sample dilutant. Percentage control was calculated as in W.S. Abbot, A Method of Computing the Effectiveness of an Insecticide, Journal of Economic Entomology (1925) 18, 265-267.

mealworms, T.molibr = test: filter paper treatment of mealworms; settings: 5 mealworms
Text: Additionally, it was also noted that Ethyl cinnamate is toxic to insects, at least mealworms, T.molibr. […] 5 mealworms were placed onto each filter paper treatment. Although all were of the same instar, the 10-1 individuals were slightly larger. […] 10-7 did die. Therefore, the size of larvae appears to be important.

CCOC(=O)/C=C/c1ccccc1 [trans-cinnamic acid ethyl ester]
LDSO (Guinea Pig): 4000 mg/kg
effectiveness against all stages of blow fly and larval life cycle [1]: ineffective
sensitization (human volunteers): no sensitization
LDSO (Rat): 7800 mg/kg
Level of Radial Growth (mm) of A. nidulans (Aspergillus nidulans; 1ml L^-1, Day 1): 0 mm
Level of Radial Growth (mm) of A. nidulans (Aspergillus nidulans; 1ml L^-1, Day 2): 0 mm
Level of Radial Growth (mm) of A. nidulans (Aspergillus nidulans; 1ml L^-1, Day 3): 6.0 mm
Level of Radial Growth (mm) of A. nidulans (Aspergillus nidulans; 1ml L^-1, Day 4): 11.5 mm
Level of Radial Growth (mm) of A. nidulans (Aspergillus nidulans; 1ml L^-1, Day 5): 16.5 mm
Level of Radial Growth (mm) of A. nidulans (Aspergillus nidulans; 1ml L^-1, Day 6): 22.0 mm
Level of Radial Growth (mm) of A. nidulans (Aspergillus nidulans; 2ml L^-1, Day 1): 0 mm
Level of Radial Growth (mm) of A. nidulans (Aspergillus nidulans; 2ml L^-1, Day 2): 0 mm
Level of Radial Growth (mm) of A. nidulans (Aspergillus nidulans; 2ml L^-1, Day 3): 0 mm
Level of Radial Growth (mm) of A. nidulans (Aspergillus nidulans; 2ml L^-1, Day 4): 0 mm
Level of Radial Growth (mm) of A. nidulans (Aspergillus nidulans; 2ml L^-1, Day 5): 6.5 mm
Level of Radial Growth (mm) of A. nidulans (Aspergillus nidulans; 2ml L^-1, Day 6): 12.5 mm
Level of Radial Growth (mm) of A. nidulans (Aspergillus nidulans; 4ml L^-1, Day 1): 0 mm
Level of Radial Growth (mm) of A. nidulans (Aspergillus nidulans; 4ml L^-1, Day 2): 0 mm
Level of Radial Growth (mm) of A. nidulans (Aspergillus nidulans; 4ml L^-1, Day 3): 0 mm
Level of Radial Growth (mm) of A. nidulans (Aspergillus nidulans; 4ml L^-1, Day 4): 0 mm
Level of Radial Growth (mm) of A. nidulans (Aspergillus nidulans; 4ml L^-1, Day 5): 0 mm
Level of Radial Growth (mm) of A. nidulans (Aspergillus nidulans; 4ml L^-1, Day 6): 4.5 mm
Level of Radial Growth (mm) of A. nidulans (Aspergillus nidulans; 40µl L^-1, Day 1): 0 mm
Level of Radial Growth (mm) of A. nidulans (Aspergillus nidulans; 40µl L^-1, Day 2): 12.0 mm
Level of Radial Growth (mm) of A. nidulans (Aspergillus nidulans; 40µl L^-1, Day 3): 23.0 mm
Level of Radial Growth (mm) of A. nidulans (Aspergillus nidulans; 40µl L^-1, Day 4): 27.0 mm
Level of Radial Growth (mm) of A. nidulans (Aspergillus nidulans; 40µl L^-1, Day 5): 32.5 mm
Level of Radial Growth (mm) of A. nidulans (Aspergillus nidulans; 40µl L^-1, Day 6): 38 mm
inhibition of growth (Aspergillus nidulans; 50ml L-^1 level): complete inhibition of growth
Level of Radial Growth (mm) of A. nidulans (Aspergillus nidulans; 50 ml L^-1, Day 1): 0 mm
Level of Radial Growth (mm) of A. nidulans (Aspergillus nidulans; 50 ml L^-1, Day 2): 0 mm
Level of Radial Growth (mm) of A. nidulans (Aspergillus nidulans; 50 ml L^-1, Day 3): 0 mm
Level of Radial Growth (mm) of A. nidulans (Aspergillus nidulans; 50 ml L^-1, Day 4): 0 mm
Level of Radial Growth (mm) of A. nidulans (Aspergillus nidulans; 50 ml L^-1, Day 5): 0 mm
Level of Radial Growth (mm) of A. nidulans (Aspergillus nidulans; 50 ml L^-1, Day 6): 0 mm
Level of Radial Growth (mm) of A. nidulans (Aspergillus nidulans; 200µl L^-1, Day 1): 0 mm
Level of Radial Growth (mm) of A. nidulans (Aspergillus nidulans; 200µl L^-1, Day 2): 9.5 mm
Level of Radial Growth (mm) of A. nidulans (Aspergillus nidulans; 200µl L^-1, Day 3): 16.5 mm
Level of Radial Growth (mm) of A. nidulans (Aspergillus nidulans; 200µl L^-1, Day 4): 23.0 mm
Level of Radial Growth (mm) of A. nidulans (Aspergillus nidulans; 200µl L^-1, Day 5): 28.0 mm
Level of Radial Growth (mm) of A. nidulans (Aspergillus nidulans; 200µl L^-1, Day 6): 34.5 mm
Level of Radial Growth (mm) of A. nidulans (Aspergillus nidulans; 400µl L^-1, Day 1): 0 mm
Level of Radial Growth (mm) of A. nidulans (Aspergillus nidulans; 400µl L^-1, Day 2): 5.5 mm
Level of Radial Growth (mm) of A. nidulans (Aspergillus nidulans; 400µl L^-1, Day 3): 11.5 mm
Level of Radial Growth (mm) of A. nidulans (Aspergillus nidulans; 400µl L^-1, Day 4): 18.0 mm
Level of Radial Growth (mm) of A. nidulans (Aspergillus nidulans; 400µl L^-1, Day 5): 24.5 mm
Level of Radial Growth (mm) of A. nidulans (Aspergillus nidulans; 400µl L^-1, Day 6): 30.0 mm
Level of Radial Growth (mm) of R. arrhizus (Rhizopus arrhizus; 1ml L^-1, Day 1): 8.5 mm
Level of Radial Growth (mm) of R. arrhizus (Rhizopus arrhizus; 1ml L^-1, Day 2): 45.0 mm
Level of Radial Growth (mm) of R. arrhizus (Rhizopus arrhizus; 1ml L^-1, Day 3): 45.0 mm
Level of Radial Growth (mm) of R. arrhizus (Rhizopus arrhizus; 1ml L^-1, Day 4): 45.0 mm
Level of Radial Growth (mm) of R. arrhizus (Rhizopus arrhizus; 1ml L^-1, Day 5): 45.0 mm
Level of Radial Growth (mm) of R. arrhizus (Rhizopus arrhizus; 1ml L^-1, Day 6): 45.0 mm
Level of Radial Growth (mm) of R. arrhizus (Rhizopus arrhizus; 2ml L^-1, Day 1): 1. mm
Level of Radial Growth (mm) of R. arrhizus (Rhizopus arrhizus; 2ml L^-1, Day 2): 45.0 mm
Level of Radial Growth (mm) of R. arrhizus (Rhizopus arrhizus; 2ml L^-1, Day 3): 45.0 mm
Level of Radial Growth (mm) of R. arrhizus (Rhizopus arrhizus; 2ml L^-1, Day 4): 45.0 mm
Level of Radial Growth (mm) of R. arrhizus (Rhizopus arrhizus; 2ml L^-1, Day 5): 45.0 mm
Level of Radial Growth (mm) of R. arrhizus (Rhizopus arrhizus; 2ml L^-1, Day 6): 45.0 mm
Level of Radial Growth (mm) of R. arrhizus (Rhizopus arrhizus; 4ml L^-1, Day 1): 0 mm
Level of Radial Growth (mm) of R. arrhizus (Rhizopus arrhizus; 4ml L^-1, Day 2): 23.5 mm
Level of Radial Growth (mm) of R. arrhizus (Rhizopus arrhizus; 4ml L^-1, Day 3): 45.0 mm
Level of Radial Growth (mm) of R. arrhizus (Rhizopus arrhizus; 4ml L^-1, Day 4): 45.0 mm
Level of Radial Growth (mm) of R. arrhizus (Rhizopus arrhizus; 4ml L^-1, Day 5): 45.0 mm
Level of Radial Growth (mm) of R. arrhizus (Rhizopus arrhizus; 4ml L^-1, Day 6): 45.0 mm
Level of Radial Growth (mm) of R. arrhizus (Rhizopus arrhizus; 40µl L^-1, Day 1): 26.0 mm
Level of Radial Growth (mm) of R. arrhizus (Rhizopus arrhizus; 40µl L^-1, Day 2): 45.0 mm
Level of Radial Growth (mm) of R. arrhizus (Rhizopus arrhizus; 40µl L^-1, Day 3): 45.0 mm
Level of Radial Growth (mm) of R. arrhizus (Rhizopus arrhizus; 40µl L^-1, Day 4): 45.0 mm
Level of Radial Growth (mm) of R. arrhizus (Rhizopus arrhizus; 40µl L^-1, Day 5): 45.0 mm
Level of Radial Growth (mm) of R. arrhizus (Rhizopus arrhizus; 40µl L^-1, Day 6): 45.0 mm
duration of complete inhibition of growth (Rhizopus arrhizus; 50ml L-^1 and higher doses, further experiments, data not shown): at least 8 days
inhibition of growth (Rhizopus arrhizus; 50ml L-^1 level): complete inhibition of growth
Level of Radial Growth (mm) of R. arrhizus (Rhizopus arrhizus; 50 ml L^-1, Day 1): 0 mm
Level of Radial Growth (mm) of R. arrhizus (Rhizopus arrhizus; 50 ml L^-1, Day 2): 0 mm
Level of Radial Growth (mm) of R. arrhizus (Rhizopus arrhizus; 50 ml L^-1, Day 3): 0 mm
Level of Radial Growth (mm) of R. arrhizus (Rhizopus arrhizus; 50 ml L^-1, Day 4): 0 mm
Level of Radial Growth (mm) of R. arrhizus (Rhizopus arrhizus; 50 ml L^-1, Day 5): 0 mm
Level of Radial Growth (mm) of R. arrhizus (Rhizopus arrhizus; 50 ml L^-1, Day 6): 0 mm
Level of Radial Growth (mm) of R. arrhizus (Rhizopus arrhizus; 200µl L^-1, Day 1): 18.0 mm
Level of Radial Growth (mm) of R. arrhizus (Rhizopus arrhizus; 200µl L^-1, Day 2): 45.0 mm
Level of Radial Growth (mm) of R. arrhizus (Rhizopus arrhizus; 200µl L^-1, Day 3): 45.0 mm
Level of Radial Growth (mm) of R. arrhizus (Rhizopus arrhizus; 200µl L^-1, Day 4): 45.0 mm
Level of Radial Growth (mm) of R. arrhizus (Rhizopus arrhizus; 200µl L^-1, Day 5): 45.0 mm
Level of Radial Growth (mm) of R. arrhizus (Rhizopus arrhizus; 200µl L^-1, Day 6): 45.0 mm
Level of Radial Growth (mm) of R. arrhizus (Rhizopus arrhizus; 400µl L^-1, Day 1): 14.5 mm
Level of Radial Growth (mm) of R. arrhizus (Rhizopus arrhizus; 400µl L^-1, Day 2): 45.0 mm
Level of Radial Growth (mm) of R. arrhizus (Rhizopus arrhizus; 400µl L^-1, Day 3): 45.0 mm
Level of Radial Growth (mm) of R. arrhizus (Rhizopus arrhizus; 400µl L^-1, Day 4): 45.0 mm
Level of Radial Growth (mm) of R. arrhizus (Rhizopus arrhizus; 400µl L^-1, Day 5): 45.0 mm
Level of Radial Growth (mm) of R. arrhizus (Rhizopus arrhizus; 400µl L^-1, Day 6): 45.0 mm
percentage control figure (Acarus siro; 7.64µl/petri dish): 100%
Mean Percentage Mortality Over Control (Acarus siro; Concentration (µl) 3.20): 95.57
Mean Percentage Mortality Over Control (Acarus siro; Concentration (µl) 3.20 x 10^1): 100.00
Mean Percentage Mortality Over Control (Acarus siro; Concentration (µl) 3.20 x 10^-1): 97.74
Mean Percentage Mortality Over Control (Acarus siro; Concentration (µl) 3.20 x 10^-2): 69.51
Mean Percentage Mortality Over Control (Acarus siro; Concentration (µl) 3.20 x 10^-3): 32.95
Mean Percentage Mortality Over Control (Acarus siro; Concentration (µl) 3.20 x 10^-4): 6.33
death of mealworms (mealworms, T.molibr; concentration 10-1, slightly larger individuals, moulted after two days): did not die
death of mealworms (mealworms, T.molibr; concentration printed 10-7): did die
